Assay results as given in patent publication US11666519B2, “Personal care compositions with cystine” (Conopco, Inc., priority 2016, dated 2023).

Columns and labels:
[1] = Solubility of L-cystine neutralized with fatty acids, HPLC (Example 5); settings: for Solubility ppm cystine: excess L-cystine in NaOH neutralized with the named acid, equilibrated at least 72 hours, filtered, HPLC, 3 replicas; for pH: pH of the cystine solution neutralized with the named acid
Procedure: Solubility of cystine was determined in the presence of alternative fatty acids. […] The precipitate upon neutralization was equilibrated with saturated solution for at least 72 hours. The solutions were then filtered through 0.45 micrometer PTFE or nylon (for C12) syringe filter and analysed on HPLC for cystine concentration.

[2] = Microscopy of cystine crystals recrystallized from high pH solution in hystric acid/KOH acid soap mixtures (Example 1); type: physicochemical
Procedure: The size of crystals can be estimated by microscopy.
The soap/acid emulsions were prepared using hystric acid (55% palmitic acid/45% stearic acid) by melting the hystric acid at 75° C. and adding this melted acid to aqueous phase consisting of KOH. […] Solubilized cystine in high pH solution was then added to the acid/soap mixture as high pH solution. Depending on the procedure of addition, differences in final formulations have been achieved.
Formula A was prepared by dissolving the cystine in hot KOH solution. Melted hystric acid was then added to this hot (75° C.) aqueous solution of cystine, mixed and let cool down to room temperature while mixing. Formula B was prepared by adding the melted hystric acid to hot KOH solution, and adding the high pH solution of cystine while mixing all ingredients at 75° C. Formula C was prepared by adding the melted hystric acid to hot KOH solution, creating thus soap, cooling the soap to 50° C. and then adding the high pH solution of cystine The resulting acid soap mixtures were observed under microscope for the formation of cystine crystals. […] Addition of cystine solution to acid soap mixture at 50-60° C. is preferred as only small particles are formed. At this temperature the majority of acid soap exists in lamellar liquid crystal or lamellar gel with vary narrow aqueous layer creating a restrictive environment for cystine crystal growth. […]

[3] = Procedure: The compositional examples are in the table 3 below. The samples in table 3 were prepared by process C in table 1.
The results in Table 3 illustrate that other ingredients can be added to the inventive compositions, as long as lamellar bilayer liquid crystal or liquid gel structure remains intact.

[4] = remark: listed apart in the source
Procedure: Additional samples with decreasing concentration of cystine were prepared to find the solubility limit for cystine in acid soap mixture. Samples in table 2 were prepared by Process A in table 1.
The samples were evaluated under microscope on the hot plate at 80° C.

[5] = cited from earlier work

SMILES	Solubility ppm cystine [1]	pH [1]	average particle size of cystine ([2]; added from high pH solution to fatty acid-soap lamellar liquid crystal or lamellar gel)	cystine crystal size ([2]; cystine added at 75 C-80° C. when in the form of oil-in-water emulsion)	solubility of cystine, minimal concentration [3]	solubility of cystine in the hystric acid acid/soap media [4]	natural solubility of cystine [5]
CCCCCCCCCCCC(=O)O [Dodecanoic (C12) with KOH, Dodecanoic]	490.6 ppm	7.6					
CCCCCCCCCCCC(=O)O [Dodecanoic (C12) with NaOH, Dodecanoic]	575 ppm	7.6					
O=C(O)/C=C\C(=O)O [Maleic]	181.6 ppm	6.6					
CCCCCCCC/C=C\CCCCCCCC(=O)O [Oleic acid (C18:1), Oleic acid]	246.8 ppm	7.3					
N[C@@H](CSSC[C@H](N)C(=O)O)C(=O)O [cystine]			less than 20 micrometers	greater than 20 micrometers	greater than 600 ppm	greater than 700 ppm	100 ppm
